Stability, Papp A→B and Papp B→A data for nine compounds are collected here from ChEMBL document CHEMBL3867475, “Discovery of furo[2,3-d][1,3]thiazinamines as beta amyloid cleaving enzyme-1 (BACE1) inhibitors” (Bioorg Med Chem Lett, 2016).

The structures appear in SMILES notation.

Series [1] is described as follows: Chemical stability of compound in aqueous condition at pH 1 to 10 at 40 degC measured up to 24 hrs. Type of series: physicochemical. Particulars: buffer, pH 1, 24 h.
Series [2] in a line: Permeability from apical side to basolateral side in human Caco2 cells. The class given is ADME, cell-based. The note with it: Caco-2, read-out: permeability. For orientation: Caco-2 monolayers are a common model of the intestinal barrier.
Series [3] in a line: Permeability from basolateral side to apical side in human Caco2 cells. Type of series: ADME, cell-based. The note with it: Caco-2, read-out: permeability.

Take `NC1=N[C@@]2(c3cc(NC(=O)c4ncccc4F)ccc3F)OCC[C@H]2CS1`: in series [1], the Stability entry is on record as “Stable”.
On to `NC1=N[C@@]2(c3cc(NC(=O)c4ccc(Cl)cn4)ccc3F)OCC[C@H]2CS1`, for which the Papp A→B in series [2] amounted to 17.7 ×10⁻⁶ cm/s. The Stability entry in series [1] was “Stable”. Also, in series [3], the Papp B→A was 24.4 ×10⁻⁶ cm/s.
With `NC1=N[C@@]2(c3cc(NC(=O)c4ccccn4)ccc3F)OCC[C@H]2CS1`, the Stability result in series [1] is given as “Stable”.
Regarding `NC1=N[C@@]2(c3cc(NC(=O)c4ncc(Cl)cc4Cl)ccc3F)OCC[C@H]2CS1`, the Stability result in series [1] is on record as “Stable”.
As to `NC1=N[C@@]2(c3cc(NC(=O)c4ccc(OC(F)F)cn4)ccc3F)OCC[C@H]2CS1`, the Stability result in series [1] is “Stable”.
On to `NC1=N[C@@]2(c3cc(NC(=O)c4ccc(Br)cn4)ccc3F)OCC[C@H]2CS1`, for which, in series [1], the Stability entry was “Stable”.
For the compound `NC1=N[C@@]2(c3cc(NC(=O)c4ccc(F)cn4)ccc3F)OCC[C@H]2CS1`, the Stability result in series [1] is reported as “Stable”.
For `N#Cc1ccc(C(=O)Nc2ccc(F)c([C@@]34N=C(N)SC[C@@H]3CCO4)c2)nc1`, in series [2], the Papp A→B was 16.4 ×10⁻⁶ cm/s. Also, in series [1], the Stability entry is listed as “Stable”. In addition, the Papp B→A in series [3] came out at 54.2 ×10⁻⁶ cm/s.
In the case of `COc1cnc(C(=O)Nc2ccc(F)c([C@@]34N=C(N)SC[C@@H]3CCO4)c2)cn1`, the Stability entry in series [1] is “Stable”.
